From patent publication US20250197354A1, “SOLID STATE FORMS OF LX9211 AND SALTS THEREOF” (TEVA PHARMACEUTICALS INTERNATIONAL GMBH, priority 2022, published 2025)
Converted amounts (≈) assume the structure as drawn.

Experiments:
Format in all cases: physicochemical
[1] = Strong grinding and solvent drop grinding, XRPD analysis
Description: (§1) Sample after being powdered in a mortar and pestle is applied directly on a silicon plate holder. The X-ray powder diffraction pattern was measured with Philips X'Pert PRO X-ray powder diffractometer, equipped with Cu irradiation source=1.54184 Å (Ångström), X'Celerator (2.022° 2θ) detector. Scanning parameters: angle range: 3-40 deg., step size 0.0167, time per step 37 s, continuous scan.
Samples of LX9211 dihydrogen phosphate form S1 were subjected to strong grinding and to solvent drop grinding in acetone, ethanol (96%), and 2-propanol). Grinding was carried out on the samples alone, or in the presence of the solvent. In these experiments, about 20 mg of the sample is placed in a mortar and ground with a pestle for 2 minutes. The solvent, when used, as added to the crystalline material before grinding, in a volume of 10 microliters. XRPD analysis performed on each of the samples after the grinding experiment, confirmed no change in the starting material (Table 4):
Samples of LX9211 dihydrogen phosphate form S3 were subjected to strong grinding and to solvent drop grinding in acetone, ethanol (96%), and 2-propanol). Grinding was carried out on the samples alone, or in the presence of the solvent. In these experiments, about 20 mg of the sample is placed in a mortar and ground with a pestle for 2 minutes. The solvent, when used, as added to the crystalline material before grinding, in a volume of 10 microliters. XRPD analysis performed on each of the samples after the grinding experiment, confirmed no change in the starting material (Table 6):
Samples of LX9211 camsylate form K1 were subjected to strong grinding and to solvent drop grinding in acetone, ethanol (96%), and 2-propanol). Grinding was carried out on the samples alone, or in the presence of the solvent. In these experiments, about 20 mg of the sample is placed in a mortar and ground with a pestle for 2 minutes. The solvent, when used, as added to the crystalline material before grinding, in a volume of 10 microliters. XRPD analysis performed on each of the samples after the grinding experiment, confirmed no change in the starting material (Table 8):
Samples of LX9211 hemihydrogen phosphate form S5 were subjected to strong grinding and to solvent drop grinding in acetone, ethanol (96%), and 2-propanol). Grinding was carried out on the samples alone, or in the presence of the solvent. In these experiments, about 20 mg of the sample is placed in a mortar and ground with a pestle for 2 minutes. The solvent, when used, as added to the crystalline material before grinding, in a volume of 10 microliters. XRPD analysis performed on each of the samples after the grinding experiment, confirmed no change in the starting material (Table 10): […]

[2] = Compression at a pressure of 1 ton, XRPD analysis; conditions: hydraulic press, 2 minutes
Description: as §1
A sample of LX9211 dihydrogen phosphate form SI was subjected to a pressure of 1 ton (Perkin Elmer Hydraulic Press, set to 1 tons).
A sample of LX9211 dihydrogen phosphate form S3 was subjected to a pressure of 1 ton (Perkin Elmer Hydraulic Press, set to 1 tons).
A sample of LX9211 camsylate form K1 was subjected to a pressure of 1 ton (Perkin Elmer Hydraulic Press, set to 1 tons).
A sample of LX9211 hemihydrogen phosphate form S5 was subjected to a pressure of 1 ton (Perkin Elmer Hydraulic Press, set to 1 tons).

DVS water uptake = conditions: at least up to 90% RH
[3] = Solubility in water and pH 4.5 buffer, HPLC; conditions: 24 hours, 37±0.2° C.; for Solubility (mg/mL) pH 4.5: pH 4.5 buffer (USP)
Description: The solubilities of LX9211 dihydrogen phosphate forms S1 and S3 and LX9211 dihydrogen phosphate and urea, and LX9211 free base form A were determined in water and pH 4.5 buffer as follows:
About 80 mg of samples of the starting materials were weighed into 15 ml PP centrifuge tubes. 8 ml of appropriate buffer solution (pH 4.5 according to USP 35-NF 30 Buffer Solutions) or water was added. Tubes were stoppered and shaken at 160 rpm for 24 hours at 37±0.2° C. in an incubator shaker (Innova 4080, New Brunswick Scientific). Suspensions were filtered through 0.45 μm […] syringe filter (CHROMAFIL PTFE-45/25, Macherey-Nagel). Filtrates were sampled and concentration of the starting material was determined by HPLC according to corresponding standard.

[4] = 2-propanol 10 microliters, solvent drop grinding for 2 minutes
[5] = Acetone 10 microliters, solvent drop grinding for 2 minutes
[6] = Ethanol (96%) 10 microliters, solvent drop grinding for 2 minutes
[7] = No solvent, strong grinding in mortar for 2 minutes

Row | Compound | XRPD analysis results after grinding [1, 4] | XRPD analysis results after grinding [1, 5] | XRPD analysis results after grinding [1, 6] | XRPD analysis results after grinding [1, 7] | XRPD analysis after pressure [2] | hygroscopicity (DVS) (DVS water uptake) | water uptake (DVS) (DVS water uptake) | Solubility (mg/mL) pH 4.5 [3] [mg/mL] | Solubility (mg/mL) water [3] [mg/mL]
1 | CC(C)C[C@](C)(N)COc1ccc(-c2ccnc(C(F)F)c2)nc1C(F)F [LX9211 camsylate form K1] | No polymorphic conversion | No polymorphic conversion | No polymorphic conversion | No polymorphic conversion | no polymorphic conversion | non-hygroscopic | less than 0.1% |  | 
2 | CC(C)C[C@](C)(N)COc1ccc(-c2ccnc(C(F)F)c2)nc1C(F)F [LX9211 dihydrogen phosphate and urea form U1] |  |  |  |  |  |  |  | 16.4 | 24.4
3 | CC(C)C[C@](C)(N)COc1ccc(-c2ccnc(C(F)F)c2)nc1C(F)F [LX9211 dihydrogen phosphate form S1] | No polymorphic conversion | No polymorphic conversion | No polymorphic conversion | No polymorphic conversion | no polymorphic conversion |  |  | 8.1 | 25.0
4 | CC(C)C[C@](C)(N)COc1ccc(-c2ccnc(C(F)F)c2)nc1C(F)F [LX9211 dihydrogen phosphate form S3] | No polymorphic conversion | No polymorphic conversion | No polymorphic conversion | No polymorphic conversion | no polymorphic conversion |  |  | 13.8 | 25.0
5 | CC(C)C[C@](C)(N)COc1ccc(-c2ccnc(C(F)F)c2)nc1C(F)F [LX9211 free base form A, (S)-1-((2′,6-bis(difluoromethyl)-[2,4′-bipyridin]-5-yl)oxy)-2,4-dimethylpentan-2-amine] |  |  |  |  |  |  |  | 9.7 | 0.1 (≈ 259 µM)
